Assay results: patent US20230278972A1, “SUBSTITUTED HALOALKYL SULFONANILIDE HERBICIDES” (FMC Corporation, priority 2020, published 2023)

What was measured:
[1] = test system: corn (Zea mays); test: Test A1 postemergence, corn; format: in vivo; settings: Postemergence
How it was run: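 Test compounds were formulated in a non-phytotoxic solvent mixture containing a surfactant. For preemergence, seeds sown in a loam soil–sand blend received a directed soil spray. For postemergence, potted plants in the same soil, 2 to 10 cm tall at the one- to two-leaf stage, were sprayed.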

[2] = test system: rice (Oryza sativa); test: Test B1 flooded paddy test, rice; format: in vivo; settings: 250 g ai/ha, Flood, applied to paddy water, 2-leaf stage, visually evaluated after 10 to 14 days
Text: A dash (-) response means no test result.

[3] = 31 g ai/ha, 0 to 100 scale (0 no effect, 100 complete control), 10 days

SMILES	Plant response rating, Corn [1, 3]	Plant response rating, Corn ([1]; 125 g ai/ha, 0 to 100 scale)	Plant response rating, Rice (0 to 100 scale, 0 is no effect, 100 is complete control) [2]
CCCCOC1CC(c2cc(NS(=O)(=O)C(F)(F)F)c(C)cc2C)=NO1 (stereo not drawn) [Compound 323]	0	0	0
Cc1cc(F)c(C2=NOC3CCCC23)cc1NS(=O)(=O)C(F)(F)F (stereo not drawn) [Compound 310]	0	0	0
Cc1c(NS(=O)(=O)C(F)(F)F)cc(C(=O)N2CCC(F)CC2)c(C)c1C [Compound 358]	0	0	10
Cc1cc(C2CC2)c(C2=NOC3CCCC23)cc1N(COC(=O)C(C)(C)C)S(=O)(=O)C(F)(F)F (stereo not drawn) [Compound 355]	0	20	10
Cc1cc(C)c(N(C(=O)OCC(C)C)S(=O)(=O)C(F)(F)F)cc1C1=NOC2CCCC12 (stereo not drawn) [Compound 299]	0	0	0
Cc1c(NS(=O)(=O)C(F)(F)F)cc(C(=O)N2CCC(Cl)CC2)c(C)c1C [Compound 356]	0	40	0
C#CCN(C)C(=O)c1cc(NS(=O)(=O)C(F)(F)F)c(Cl)c(F)c1C [Compound 337]	30	40	25
CCOC1CC(c2cc(NS(=O)(=O)C(F)(F)F)c(C)cc2C)=NO1 (stereo not drawn) [Compound 318]	30	60	0
Cc1c(NS(=O)(=O)C(F)(F)F)cc(C(=O)N(C)C)c(C)c1C [Compound 288]	0	10	0
Cc1cc(C2CC2)c(C2=NOC3CCCC23)cc1NS(=O)(=O)C(F)(F)F (stereo not drawn) [Compound 307]	0	0	0
Cc1c(C(=O)N2CCC(Cl)CC2)cc(N(COC(=O)C(C)(C)C)S(=O)(=O)C(F)(F)F)c(C)c1C [Compound 359]	0	0	15
CCC1ON=C(c2cc(N(COC(=O)C(C)(C)C)S(=O)(=O)C(F)(F)F)c(C)cc2C)C1CC (stereo not drawn) [Compound 347]	0	10	25
Cc1cc(C)c(N(COC(=O)C(C)(C)C)S(=O)(=O)C(F)(F)F)cc1C(=O)N1CCC(c2ccccc2)CC1 [Compound 364]	0	0	0
Cc1c(C(=O)N2CCCCC2)cc(N(COC(=O)C(C)(C)C)S(=O)(=O)C(F)(F)F)c(C)c1C [Compound 329, [[(Trifluoromethyl)sulfonyl][2,3,4-trimethyl-5-(1-piperidinylcarbonyl)phenyl]amino]methyl 2,2-dimethylpropanoate]	0	0	20
Cc1cc(C)c(N(COC(=O)C(C)C)S(=O)(=O)C(F)(F)F)cc1C1=NOC2CCCC12 (stereo not drawn) [Compound 308]	0	30	10
